CC50 and EC50 data for 25 compounds are collected here from US20120252721A1 (priority 2011, published 2012).

Data set [1] can be described thus: in vitro. The format is cell-based. The settings on record: human; GS4.1 cells, cellular viability. On the procedure:
For cytotoxicity evaluation, GS4.1 cells were treated with compounds as described above and cellular viability was monitored using the Cell Titer 96 AQeous One Solution Cell Proliferation Assay (Promega). CC50 values were determined from the % cytotoxicity versus concentration data with Tecan Magellan software as described above.

In data set [2] the test system is HCV Con1 subgenomic replicon (GS4.1 cells). The data set can be described thus: HCV replicon assay (NS5A ELISA, 72 hrs). The format is cell-based. Conditions: Hepatitis C virus. The procedure: Huh-7 cells containing HCV Con1 subgenomic replicon (GS4.1 cells) were grown in Dulbecco's Modified Eagle Medium (DMEM) supplemented with 10% fetal bovine serum (FBS), 2 mM L-glutamine, 110 mg/L sodium pyruvate, 1× non-essential amino acids, 100 U/mL penicillin-streptomycin, and 0.5 mg/mL G418 (Invitrogen). For dose-response testing, the cells were seeded in 96-well plates at 7.5×10^3 cells/well in a volume of 50 μL, and incubated at 37° C./5% CO2. Three hours after plating, 50 μL often 2-fold serial dilutions of compounds (highest concentration, 75 μM) were added, and cell cultures were incubated at 37° C./5% CO2 in the presence of 0.5% DMSO. Alternatively, compounds were tested at a single concentration of 15 μM. In all cases, Huh-7 cells lacking the HCV replicon served as negative control. The cells were incubated in the presence of compounds for 72 hrs after which they were monitored for expression of the NS5A protein by enzyme-linked immunosorbent assay (ELISA). For this, the plates were then fixed for 1 min with acetone/methanol (1:1, v/v), washed twice with phosphate-buffered saline (PBS), 0.1% Tween 20, blocked for 1 hr at room temperature with TNE buffer containing 10% FBS and then incubated for 2 hr at 37° C. with the anti-NS5A mouse monoclonal antibody A-236 (ViroGen) diluted in the same buffer. After washing three times with PBS, 0.1% Tween 20, the cells were incubated 1 hr at 37° C. with anti-mouse immunoglobulin G-peroxidase conjugate in TNE, 10% FBS. After washing as described above, the reaction was developed with O-phenylenediamine (Zymed). The reaction was stopped after 30 min with 2 NH2SO4, and absorbance was read at 492 nm using Sunrise Tecan spectrophotometer. EC50 values were determined from the % inhibition versus concentration data using a sigmoidal non-linear regression analysis based on four parameters with Tecan Magellan software.

For `COC(=O)N[C@H](C(=O)N1CCC[C@H]1c1ncc(-c2ccc(-c3cn4cc(NC(=O)[C@@H]5CCCN5C(=O)[C@H](NC(=O)OC(C)(C)C)c5ccccc5)nc4s3)cc2)[nH]1)C(C)C` [Compound A1, (S,S,S,R)-[1-(2-{5-[4-(6-{[1-(2-tert-butoxycarbonylamino-2-phenyl-acetyl)-pyrrolidine-2-carbonyl]-amino}imidazo[2,1-b]thiazol-2-yl)-phenyl]-1H-imidazol-2-yl}pyrrolidine-1-carbonyl)-2-methyl-propyl]-carbamic acid methyl ester], the half-maximal cytotoxic concentration (CC50) in data set [1] is > 75 µM. Besides, the concentration giving a half-maximal response (EC50) in data set [2] is < 0.001 µM.

For the compound `COC(=O)N[C@H](C(=O)N1CCC[C@H]1C(=O)Nc1cn2cc(-c3ccc(-c4cnc([C@@H]5CCCN5C(=O)[C@@H](NC(=O)OC)C(C)C)[nH]4)cc3)sc2n1)C(C)C` [Compound A2, (S,S,S,S)-(1-{2-[2-(4-{2-[1-(2-methoxycarbonylamino-3-methyl-butyryl)-pyrrolidin-2-yl]-3H-imidazol-4-yl}-phenyl)-imidazo[2,1-b]thiazol-6-ylcarbamoyl]-pyrrolidine-1-carbonyl}-2-methyl-propyl)-carbamic acid methyl ester], the half-maximal cytotoxic concentration (CC50) in data set [1] fell in the range of 10 to 75 µM. This compound also came in with a concentration giving a half-maximal response (EC50) in data set [2] of 0.001 to 0.01 µM.

For `COC(=O)N[C@H](C(=O)N1CCCC1c1ncc(-c2cn3cc(-c4ccc(-c5cnc([C@@H]6CCCN6C(=O)[C@@H](NC(=O)OC)C(C)C)[nH]5)cc4)nc3s2)[nH]1)C(C)C` (stereo partly shown) [Compound A7], in data set [1], the cytotoxic concentration (CC50) is > 75 µM. Further, the concentration for a half-maximal effect (EC50) in data set [2] was < 0.001 µM.

With `CC(C)(C)OC(=O)N[C@@H](C(=O)N1CCOC[C@H]1C(=O)Nc1cn2cc(-c3ccccc3)sc2n1)c1ccccc1` [Compound A22], the CC50 in data set [1] was > 75 µM. For the same compound, the EC50 in data set [2] was > 0.1 µM.

`CC(C)(C)OC(=O)N[C@@H](C(=O)N1CCC[C@H]1C(=O)Nc1cn2cc(C#Cc3ccccc3)sc2n1)c1ccccc1` [Compound A23]: in data set [1], the half-maximal cytotoxic concentration (CC50) is 10 to 75 µM. The concentration for a half-maximal effect (EC50) in data set [2] was > 0.1 µM.

Regarding `CC(C)(C)OC(=O)N[C@@H](C(=O)N1CCC[C@H]1C(=O)Nc1cn2cc(-c3ccccc3)sc2n1)c1ccccc1` [Compound A27], the CC50 in data set [1] was > 75 µM. Further, the half-maximal effective concentration (EC50) in data set [2] fell in the range of 0.01 to 0.1 µM.

`CC(C)(C)OC(=O)Nc1ccc(-c2cn3cc(NC(=O)[C@@H]4CCCN4C(=O)[C@H](NC(=O)OC(C)(C)C)c4ccccc4)nc3s2)cc1` [Compound A29]: the CC50 in data set [1] lay within 10 to 75 µM. The EC50 in data set [2] was > 0.1 µM.

For the compound `COC(=O)N[C@H](C(=O)N1CCC[C@H]1c1ncc(-c2ccc(-c3cn4cc(NC(=O)[C@@H]5CCCN5C(=O)[C@H](NC(=O)OC)c5ccccc5)nc4s3)cc2)[nH]1)C(C)C` [Compound A30, (S,S,S,R)-[1-(2-{5-[4-(6-{[1-(2-methoxycarbonylamino-2-phenyl-acetyl)-pyrrolidin-2-carbonyl]-amino}-imidazo[2,1-b]thiazol-2-yl)-phenyl]-1H-imidazol-2-yl}-pyrrolidine-1-carbonyl)-2-methyl-propyl]-carbamic acid methyl ester], in data set [1], the CC50 is > 75 µM. For the same compound, the EC50 in data set [2] was < 0.001 µM.

With `COC(=O)N[C@H](C(=O)N1CCC[C@H]1c1ncc(-c2ccc(-c3cn4cc(NC(=O)C5CCCN5C(=O)CNC(=O)OC(C)(C)C)nc4s3)cc2)[nH]1)C(C)C` (stereo partly shown) [Compound A31], the CC50 in data set [1] is > 75 µM. The concentration giving a half-maximal response (EC50) in data set [2] was in the range of 0.01 to 0.1 µM.

Regarding `COC(=O)N[C@H](C(=O)N1CCC[C@H]1C(=O)Nc1ccc(-c2cn3cc(NC(=O)C4CCCN4C(=O)[C@@H](NC(=O)OC)C(C)C)nc3s2)cc1)c1ccccc1` (stereo partly shown) [Compound A32], the CC50 in data set [1] is > 75 µM. For the same compound, in data set [2], the concentration giving a half-maximal response (EC50) was < 0.001 µM.

With `COC(=O)N[C@H](C(=O)N1CCC[C@H]1c1ncc(-c2ccc(-c3cn4cc(-c5cnc(C6CCCN6C(=O)[C@@H](NC(=O)OC(C)(C)C)c6ccccc6)[nH]5)nc4s3)cc2)[nH]1)C(C)C` (stereo partly shown) [Compound A33], in data set [1], the cytotoxic concentration (CC50) was > 75 µM. Besides, in data set [2], the half-maximal effective concentration (EC50) was < 0.001 µM.

Consider `COC(=O)N[C@H](C(=O)N1CCC[C@H]1C(=O)Nc1ccc(-c2cn3cc(NC(=O)OC(C)(C)C)nc3s2)cc1)C(C)C` [Compound A34], for which the cytotoxic concentration (CC50) in data set [1] lay in the range of 10 to 75 µM. In addition, in data set [2], the concentration giving a half-maximal response (EC50) fell in the range of 0.001 to 0.01 µM.

On to `COC(=O)N[C@H](C(=O)N1CCCC1c1ncc(-c2ccc(-c3csc4c(-c5cnc(C6CCCN6C(=O)OCc6ccccc6)[nH]5)csc34)cc2)[nH]1)C(C)C` (stereo partly shown) [Compound A49], for which the CC50 in data set [1] was > 75 µM. Moreover, the EC50 in data set [2] is < 0.001 µM.

On to `CCOC(=O)N[C@@H](C(=O)N1CCC[C@H]1C(=O)Nc1cn2cc(-c3ccc(-c4cnc([C@@H]5CCCN5C(=O)[C@@H](NC(=O)OC)C(C)C)[nH]4)cc3)sc2n1)c1ccccc1` [Compound A55, (S,S,S,R)-[1-(2-{5-[4-(6-{[1-(2-ethoxycarbonylamino-2-phenylacetyl)-pyrrolidine-2-carbonyl]-amino}imidazo[2,1-b]thiazol-2-yl)-phenyl]-1H-imidazol-2-yl}pyrrolidine-1-carbonyl)-2-methyl-propyl]-carbamic acid methyl ester], for which the CC50 in data set [1] lay within 10 to 75 µM. The EC50 in data set [2] is < 0.001 µM.

For the compound `COC(=O)N[C@H](C(=O)N1CCC[C@H]1c1ncc(-c2ccc(-c3cn4cc(NC(=O)[C@@H]5CCCN5C(=O)[C@H](NC(=O)OC(C)C)c5ccccc5)nc4s3)cc2)[nH]1)C(C)C` [Compound A56], the cytotoxic concentration (CC50) in data set [1] was > 75 µM. Also, the EC50 in data set [2] is < 0.001 µM.

`COC(=O)NC(C(=O)N1CCCC1c1ncc(-c2cn3cc(-c4ccc(-c5cnc([C@@H]6CCCN6C(=O)[C@H](NC(=O)OC)c6ccccc6)[nH]5)cc4)nc3s2)[nH]1)c1ccccc1` (stereo partly shown) [Compound A60]: in data set [1], the CC50 was > 75 µM. Moreover, the concentration giving a half-maximal response (EC50) in data set [2] is < 0.001 µM.

In the case of `COC(=O)N[C@H](C(=O)N1CCCC1c1ncc(-c2ccc(-c3csc4c(-c5cnc(C6CCCN6C(=O)[C@@H](NC(=O)OC(C)(C)C)C(C)C)[nH]5)csc34)cc2)[nH]1)C(C)C` (stereo partly shown) [Compound A76], the CC50 in data set [1] was > 75 µM. In addition, the EC50 in data set [2] was < 0.001 µM.

In the case of `COC(=O)N[C@H](C(=O)N1CCCC1c1ncc(-c2ccc(-c3csc4c(-c5cnc(C6CCCN6C(=O)[C@H](NC(=O)OC)C(C)C)[nH]5)csc34)cc2)[nH]1)C(C)C` (stereo partly shown) [Compound A77], the half-maximal cytotoxic concentration (CC50) in data set [1] was > 75 µM. In addition, in data set [2], the 50% effective concentration (EC50) is < 0.001 µM.

Turning to `COC(=O)N[C@H](C(=O)N1CCCC1c1ncc(-c2csc3c(-c4ccc(-c5cnc(C6CCCN6C(=O)[C@@H](NC(=O)OC)C(C)C)[nH]5)cc4)csc23)[nH]1)c1ccccc1` (stereo partly shown) [Compound A78], the CC50 in data set [1] is > 75 µM. Further, the EC50 in data set [2] was < 0.001 µM.

As for `COC(=O)N[C@@H](C(=O)N1CCC[C@H]1C(=O)Nc1ccc(-c2cn3cc(NC(=O)[C@@H]4CCCN4C(=O)[C@H](NC(=O)OC)c4ccccc4)nc3s2)cc1)c1ccccc1` [Compound A79], the CC50 in data set [1] is > 75 µM. Further, the EC50 in data set [2] was < 0.001 µM.

On to `COC(=O)N[C@@H](C(=O)N1CCC[C@H]1C(=O)Nc1ccc(C#Cc2cn3cc(NC(=O)[C@@H]4CCCN4C(=O)[C@H](NC(=O)OC)c4ccccc4)nc3s2)cc1)c1ccccc1` [Compound A80], for which, in data set [1], the CC50 is > 75 µM. For the same compound, the 50% effective concentration (EC50) in data set [2] is < 0.001 µM.

For the compound `COC(=O)N[C@H](C(=O)N1CCC[C@H]1c1ncc(-c2csc3c(-c4cnc([C@@H]5CCCN5C(=O)[C@@H](NC(=O)OC)C(C)C)[nH]4)csc23)[nH]1)C(C)C` [Compound A82, ((S)-1-{(S)-2-[5-(6-{2-[(S)-1-((S)-2-methoxycarbonylamino-3-methyl-butyryl)-pyrrolidin-2-yl]-3H-imidazol-4-yl}-thieno[3,2-b]thiophen-3-yl)-1H-imidazol-2-yl]-pyrrolidine-1-carbonyl}-2-methyl-propyl)-carbamic acid methyl ester], in data set [1], the CC50 was 10 to 75 µM. Moreover, the concentration for a half-maximal effect (EC50) in data set [2] is < 0.001 µM.

Regarding `COC(=O)N[C@H](C(=O)N1CCC[C@H]1c1ncc(C#Cc2csc3c(-c4ccc(-c5cnc([C@@H]6CCCN6C(=O)[C@@H](NC(=O)OC)C(C)C)[nH]5)cc4)csc23)[nH]1)C(C)C` [Compound A84, [(S)-1-((S)-2-{4-[4-(6-{2-[(S)-1-((S)-2-methoxycarbonylamino-3-methyl-butyryl)-pyrrolidin-2-yl]-3H-imidazol-4-ylethynyl}-thieno[3,2-b]thiophen-3-yl)-phenyl]-1H-imidazol-2-yl}-pyrrolidine-1-carbonyl)-2-methyl-propyl]-carbamic acid methyl ester], the CC50 in data set [1] was > 75 µM. The EC50 in data set [2] was < 0.001 µM.

As to `COC(=O)N[C@H](C(=O)N1CCCC1c1cc(-c2ccc(-c3csc4c(-c5ccc(-c6cnc(C7CCCN7C(=O)[C@@H](NC(=O)OC)C(C)C)[nH]6)cc5)csc34)cc2)[nH]n1)C(C)C` (stereo partly shown) [Compound A87], the CC50 in data set [1] was > 75 µM. For the same compound, in data set [2], the EC50 is < 0.001 µM.

Regarding `CC(C)(C)OC(=O)N1CCCC1c1ncc(-c2ccc(-c3cn4ccsc4n3)cc2)[nH]1` (stereo not shown) [Compound A167], the concentration giving a half-maximal response (EC50) in data set [2] was > 0.1 µM.

As usually defined, the CC50 is the concentration that lowers cell viability or growth by half. The low end stands for greater toxicity to the cells, the high end for lower toxicity to the cells. In general, EC50 refers to the concentration that produces a half-maximal response.
